Experimental findings from ChEMBL document CHEMBL1152560, “Substituted 2-arylbenzothiazoles as kinase inhibitors: hit-to-lead optimization” (Bioorg Med Chem, 2009) are described below.

The structures appear in SMILES notation.

In assay [1] the target is Calcium/calmodulin-dependent protein kinase type II subunit alpha (Homo sapiens) (UniProt Q9UQM7). Description: Residual activity of CAMK2A at 10 uM by microplate scintillation counting.
The target of assay [2] is Proto-oncogene tyrosine-protein kinase ROS (Homo sapiens) (UniProt P08922). Description: Residual activity of ROS at 10 uM by microplate scintillation counting.
The target of assay [3] is RAC-gamma serine/threonine-protein kinase (Homo sapiens) (UniProt Q9Y243). Description: Residual activity of AKT3 at 1 uM by microplate scintillation counting.
Chain of RAC-gamma serine/threonine-protein kinase (Homo sapiens) (Q9Y243 whole entry): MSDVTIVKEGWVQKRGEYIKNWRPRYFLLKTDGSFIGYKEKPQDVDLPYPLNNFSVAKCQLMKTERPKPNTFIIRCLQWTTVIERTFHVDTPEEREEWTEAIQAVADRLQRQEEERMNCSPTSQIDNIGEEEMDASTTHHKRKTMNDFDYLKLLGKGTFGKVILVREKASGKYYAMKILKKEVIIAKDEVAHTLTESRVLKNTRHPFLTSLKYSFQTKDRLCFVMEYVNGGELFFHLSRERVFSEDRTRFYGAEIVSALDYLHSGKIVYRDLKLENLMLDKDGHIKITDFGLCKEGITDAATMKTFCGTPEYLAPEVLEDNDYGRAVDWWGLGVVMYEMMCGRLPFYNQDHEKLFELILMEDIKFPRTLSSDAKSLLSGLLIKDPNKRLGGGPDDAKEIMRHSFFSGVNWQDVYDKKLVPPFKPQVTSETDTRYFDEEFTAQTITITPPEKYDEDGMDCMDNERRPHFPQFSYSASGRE
For assay [4], the target named is T1, Aurora kinase A (Homo sapiens) (UniProt O14965).
T1 sequence (whole entry): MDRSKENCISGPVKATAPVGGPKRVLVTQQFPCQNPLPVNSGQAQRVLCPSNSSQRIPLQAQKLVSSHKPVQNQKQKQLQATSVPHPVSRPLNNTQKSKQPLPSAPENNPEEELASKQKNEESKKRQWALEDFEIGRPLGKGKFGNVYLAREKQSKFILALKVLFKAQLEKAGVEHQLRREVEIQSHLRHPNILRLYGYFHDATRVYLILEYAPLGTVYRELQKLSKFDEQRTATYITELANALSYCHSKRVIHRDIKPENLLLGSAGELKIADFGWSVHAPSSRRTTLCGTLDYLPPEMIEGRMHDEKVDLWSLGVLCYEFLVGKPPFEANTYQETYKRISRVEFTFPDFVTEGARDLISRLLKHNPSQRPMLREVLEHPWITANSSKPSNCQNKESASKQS
Description: Residual activity of Aurora-A at 0.1 uM by microplate scintillation counting.

Assay [5] has as its system Epidermal growth factor receptor (Homo sapiens), P00533 [L858R]. Description: Residual activity of EGFR L858R mutant at 10 uM by microplate scintillation counting.
Assay [6] addresses Casein kinase II subunit alpha (Homo sapiens) (UniProt P68400). The experiment in a line: Residual activity of CK2alpha1 at 10 uM by microplate scintillation counting.
Assay [7] deals with Serine/threonine-protein kinase SIK2 (Homo sapiens) (UniProt Q9H0K1). The experiment in a line: Residual activity of SNF1LK2 at 0.1 uM by microplate scintillation counting.
Assay [8] addresses Ephrin type-A receptor 5 (Homo sapiens) (UniProt P54756). The experiment in a line: Residual activity of EPHA5 at 10 uM by microplate scintillation counting.
For assay [9], the target named is Ephrin type-A receptor 2 (Homo sapiens) (UniProt P29317). The experiment in a line: Residual activity of EPHA2 at 1 uM by microplate scintillation counting.
For assay [10], the target named is RAC-gamma serine/threonine-protein kinase (Homo sapiens) (UniProt Q9Y243). Description: Residual activity of AKT3 at 0.1 uM by microplate scintillation counting.
For assay [11], the target named is Calcium/calmodulin-dependent protein kinase type II subunit delta (Homo sapiens) (UniProt Q13557). Description: Residual activity of CAMK2D at 0.1 uM by microplate scintillation counting.
In assay [12] the target is Mitogen-activated protein kinase 1 (Homo sapiens) (UniProt P28482). Description: Residual activity of ERK2 at 0.1 uM by microplate scintillation counting.
Chain of Mitogen-activated protein kinase 1 (Homo sapiens) (P28482 whole entry): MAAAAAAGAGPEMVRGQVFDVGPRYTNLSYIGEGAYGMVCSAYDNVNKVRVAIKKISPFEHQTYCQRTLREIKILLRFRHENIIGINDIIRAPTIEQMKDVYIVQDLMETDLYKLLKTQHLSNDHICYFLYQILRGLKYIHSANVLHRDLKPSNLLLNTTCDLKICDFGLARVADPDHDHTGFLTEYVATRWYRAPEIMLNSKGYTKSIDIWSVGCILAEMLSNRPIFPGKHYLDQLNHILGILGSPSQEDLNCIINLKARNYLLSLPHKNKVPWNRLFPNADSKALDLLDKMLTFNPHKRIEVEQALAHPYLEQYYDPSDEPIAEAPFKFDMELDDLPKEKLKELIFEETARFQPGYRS
The target in assay [13] is Ephrin type-A receptor 4 (Homo sapiens) (UniProt P54764). The experiment in a line: Residual activity of EPHA4 at 10 uM by microplate scintillation counting.
Assay [14] addresses Tyrosine-protein kinase ABL1 (Homo sapiens) (UniProt P00519). The experiment in a line: Residual activity of wild type ABL1 at 0.1 uM by microplate scintillation counting.
Assay [15] concerns the target Dual specificity mitogen-activated protein kinase kinase 1 (Homo sapiens) (UniProt Q02750). The experiment in a line: Residual activity of wild type MEK1 at 1 uM by microplate scintillation counting.
In assay [16] the target is Serine/threonine-protein kinase WNK2 (Homo sapiens) (UniProt Q9Y3S1). Description: Residual activity of WNK2 at 10 uM by microplate scintillation counting.
The subject of assay [17] is Mast/stem cell growth factor receptor Kit (Homo sapiens), P10721 [T670I]. Description: Residual activity of KIT T670I mutant at 0.1 uM by microplate scintillation counting.
In assay [18] the target is Protein kinase C gamma type (Homo sapiens) (UniProt P05129). Description: Residual activity of PKCgamma at 1 uM by microplate scintillation counting.
Assay [19] addresses Ribosomal protein S6 kinase beta-2 (Homo sapiens) (UniProt Q9UBS0). The experiment in a line: Residual activity of S6Kbeta at 1 uM by microplate scintillation counting.
The target in assay [20] is T2, Ephrin type-A receptor 3 (Homo sapiens) (UniProt P29320).
T2 sequence (whole entry): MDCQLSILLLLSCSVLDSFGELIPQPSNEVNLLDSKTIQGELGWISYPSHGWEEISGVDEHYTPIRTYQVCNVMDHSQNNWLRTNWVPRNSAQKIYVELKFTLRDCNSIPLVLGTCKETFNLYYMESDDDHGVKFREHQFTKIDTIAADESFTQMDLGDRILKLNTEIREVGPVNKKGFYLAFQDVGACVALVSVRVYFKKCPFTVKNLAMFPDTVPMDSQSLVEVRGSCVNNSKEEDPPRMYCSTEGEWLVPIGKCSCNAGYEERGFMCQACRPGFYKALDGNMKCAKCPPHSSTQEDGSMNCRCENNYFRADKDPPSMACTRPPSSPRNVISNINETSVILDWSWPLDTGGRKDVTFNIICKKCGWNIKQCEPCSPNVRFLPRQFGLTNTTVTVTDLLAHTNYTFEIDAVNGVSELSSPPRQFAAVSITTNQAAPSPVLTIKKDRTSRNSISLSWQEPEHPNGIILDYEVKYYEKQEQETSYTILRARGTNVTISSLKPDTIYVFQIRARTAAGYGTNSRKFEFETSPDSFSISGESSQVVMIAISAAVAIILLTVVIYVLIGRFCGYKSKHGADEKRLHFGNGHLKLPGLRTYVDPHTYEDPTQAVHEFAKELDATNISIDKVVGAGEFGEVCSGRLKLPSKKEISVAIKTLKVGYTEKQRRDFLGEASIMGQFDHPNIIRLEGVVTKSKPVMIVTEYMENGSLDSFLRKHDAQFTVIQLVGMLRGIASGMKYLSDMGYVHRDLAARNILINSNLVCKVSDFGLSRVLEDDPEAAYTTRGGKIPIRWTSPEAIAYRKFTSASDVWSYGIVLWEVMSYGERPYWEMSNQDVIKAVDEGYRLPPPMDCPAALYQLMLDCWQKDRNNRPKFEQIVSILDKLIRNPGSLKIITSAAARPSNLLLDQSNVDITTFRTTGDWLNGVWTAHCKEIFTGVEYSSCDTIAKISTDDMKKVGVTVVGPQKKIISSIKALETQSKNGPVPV
The experiment in a line: Residual activity of EPHA3 at 1 uM by microplate scintillation counting.

The target of assay [21] is Insulin-like growth factor 1 receptor (Homo sapiens) (UniProt P08069). Description: Residual activity of IGF1R at 10 uM by microplate scintillation counting.
Chain of Insulin-like growth factor 1 receptor (Homo sapiens) (P08069 31-736 limits assumed): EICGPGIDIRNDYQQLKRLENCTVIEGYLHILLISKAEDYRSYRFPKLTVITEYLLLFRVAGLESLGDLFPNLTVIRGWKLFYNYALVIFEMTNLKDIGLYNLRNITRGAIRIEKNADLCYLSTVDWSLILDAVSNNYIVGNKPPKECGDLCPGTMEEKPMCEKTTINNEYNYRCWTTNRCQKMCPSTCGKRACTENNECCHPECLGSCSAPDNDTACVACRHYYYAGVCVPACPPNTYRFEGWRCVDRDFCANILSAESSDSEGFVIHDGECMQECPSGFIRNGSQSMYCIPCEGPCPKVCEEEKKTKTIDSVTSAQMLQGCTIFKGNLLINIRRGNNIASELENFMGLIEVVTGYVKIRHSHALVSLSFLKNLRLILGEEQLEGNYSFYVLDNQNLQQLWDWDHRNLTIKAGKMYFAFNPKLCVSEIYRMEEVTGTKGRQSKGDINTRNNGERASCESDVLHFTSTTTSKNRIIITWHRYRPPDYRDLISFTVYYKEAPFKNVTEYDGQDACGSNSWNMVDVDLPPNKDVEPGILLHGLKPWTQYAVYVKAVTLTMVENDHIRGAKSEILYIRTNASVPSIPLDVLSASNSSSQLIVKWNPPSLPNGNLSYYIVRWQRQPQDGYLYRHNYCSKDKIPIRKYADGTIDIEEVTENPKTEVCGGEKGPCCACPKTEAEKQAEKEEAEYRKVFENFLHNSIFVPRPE
Chain of Insulin-like growth factor 1 receptor (Homo sapiens) (P08069 741-1367 limits assumed): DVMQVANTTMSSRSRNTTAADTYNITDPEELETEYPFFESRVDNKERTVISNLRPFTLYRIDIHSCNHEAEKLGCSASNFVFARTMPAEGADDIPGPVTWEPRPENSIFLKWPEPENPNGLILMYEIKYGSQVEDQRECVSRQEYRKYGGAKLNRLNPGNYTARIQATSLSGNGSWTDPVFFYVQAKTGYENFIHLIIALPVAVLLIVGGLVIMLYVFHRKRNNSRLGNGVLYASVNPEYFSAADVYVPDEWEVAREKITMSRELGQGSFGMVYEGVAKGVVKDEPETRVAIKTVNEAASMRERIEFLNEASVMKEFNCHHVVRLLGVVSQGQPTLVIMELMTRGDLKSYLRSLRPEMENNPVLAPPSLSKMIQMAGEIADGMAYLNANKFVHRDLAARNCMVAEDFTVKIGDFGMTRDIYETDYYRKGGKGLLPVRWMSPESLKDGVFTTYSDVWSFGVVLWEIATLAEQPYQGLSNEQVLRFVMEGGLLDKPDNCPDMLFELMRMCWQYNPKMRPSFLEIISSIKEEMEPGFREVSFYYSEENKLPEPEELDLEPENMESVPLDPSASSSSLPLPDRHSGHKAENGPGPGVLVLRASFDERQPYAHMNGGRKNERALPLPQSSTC
The test system of assay [22] is RAF proto-oncogene serine/threonine-protein kinase (Homo sapiens), P04049 [Y340D,Y341D]. Description: Residual activity of RAF1 Y340D/Y341D mutant at 1 uM by microplate scintillation counting.

Chain of Ephrin type-A receptor 5 (Homo sapiens) (P54756 whole entry): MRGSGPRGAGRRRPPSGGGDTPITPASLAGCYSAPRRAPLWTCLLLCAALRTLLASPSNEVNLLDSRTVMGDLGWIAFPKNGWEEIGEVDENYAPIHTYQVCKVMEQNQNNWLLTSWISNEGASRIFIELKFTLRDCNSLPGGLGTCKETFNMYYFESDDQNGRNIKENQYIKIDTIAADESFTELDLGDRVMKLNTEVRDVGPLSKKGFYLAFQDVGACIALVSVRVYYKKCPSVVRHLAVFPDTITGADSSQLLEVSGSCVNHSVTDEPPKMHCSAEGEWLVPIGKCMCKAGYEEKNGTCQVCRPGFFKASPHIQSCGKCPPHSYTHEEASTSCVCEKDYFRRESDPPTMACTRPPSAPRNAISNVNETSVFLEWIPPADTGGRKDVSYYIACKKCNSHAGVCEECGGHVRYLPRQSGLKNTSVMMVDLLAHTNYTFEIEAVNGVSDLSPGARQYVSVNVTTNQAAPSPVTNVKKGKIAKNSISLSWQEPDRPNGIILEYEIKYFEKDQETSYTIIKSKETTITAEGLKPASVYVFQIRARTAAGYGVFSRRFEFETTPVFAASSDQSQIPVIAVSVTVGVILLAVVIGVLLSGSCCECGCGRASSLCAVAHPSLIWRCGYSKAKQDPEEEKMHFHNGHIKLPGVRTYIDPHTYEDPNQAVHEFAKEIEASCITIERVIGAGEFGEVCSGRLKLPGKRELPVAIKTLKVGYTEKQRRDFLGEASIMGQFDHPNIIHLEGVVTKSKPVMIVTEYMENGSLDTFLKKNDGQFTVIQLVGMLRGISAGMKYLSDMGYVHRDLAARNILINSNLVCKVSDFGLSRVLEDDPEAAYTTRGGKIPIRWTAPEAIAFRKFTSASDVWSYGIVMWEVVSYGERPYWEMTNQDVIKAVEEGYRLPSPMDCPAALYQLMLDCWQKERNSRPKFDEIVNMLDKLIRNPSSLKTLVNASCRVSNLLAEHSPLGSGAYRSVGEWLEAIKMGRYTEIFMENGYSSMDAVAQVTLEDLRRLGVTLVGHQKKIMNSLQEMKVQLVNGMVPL
Chain of Tyrosine-protein kinase ABL1 (Homo sapiens) (P00519 whole entry): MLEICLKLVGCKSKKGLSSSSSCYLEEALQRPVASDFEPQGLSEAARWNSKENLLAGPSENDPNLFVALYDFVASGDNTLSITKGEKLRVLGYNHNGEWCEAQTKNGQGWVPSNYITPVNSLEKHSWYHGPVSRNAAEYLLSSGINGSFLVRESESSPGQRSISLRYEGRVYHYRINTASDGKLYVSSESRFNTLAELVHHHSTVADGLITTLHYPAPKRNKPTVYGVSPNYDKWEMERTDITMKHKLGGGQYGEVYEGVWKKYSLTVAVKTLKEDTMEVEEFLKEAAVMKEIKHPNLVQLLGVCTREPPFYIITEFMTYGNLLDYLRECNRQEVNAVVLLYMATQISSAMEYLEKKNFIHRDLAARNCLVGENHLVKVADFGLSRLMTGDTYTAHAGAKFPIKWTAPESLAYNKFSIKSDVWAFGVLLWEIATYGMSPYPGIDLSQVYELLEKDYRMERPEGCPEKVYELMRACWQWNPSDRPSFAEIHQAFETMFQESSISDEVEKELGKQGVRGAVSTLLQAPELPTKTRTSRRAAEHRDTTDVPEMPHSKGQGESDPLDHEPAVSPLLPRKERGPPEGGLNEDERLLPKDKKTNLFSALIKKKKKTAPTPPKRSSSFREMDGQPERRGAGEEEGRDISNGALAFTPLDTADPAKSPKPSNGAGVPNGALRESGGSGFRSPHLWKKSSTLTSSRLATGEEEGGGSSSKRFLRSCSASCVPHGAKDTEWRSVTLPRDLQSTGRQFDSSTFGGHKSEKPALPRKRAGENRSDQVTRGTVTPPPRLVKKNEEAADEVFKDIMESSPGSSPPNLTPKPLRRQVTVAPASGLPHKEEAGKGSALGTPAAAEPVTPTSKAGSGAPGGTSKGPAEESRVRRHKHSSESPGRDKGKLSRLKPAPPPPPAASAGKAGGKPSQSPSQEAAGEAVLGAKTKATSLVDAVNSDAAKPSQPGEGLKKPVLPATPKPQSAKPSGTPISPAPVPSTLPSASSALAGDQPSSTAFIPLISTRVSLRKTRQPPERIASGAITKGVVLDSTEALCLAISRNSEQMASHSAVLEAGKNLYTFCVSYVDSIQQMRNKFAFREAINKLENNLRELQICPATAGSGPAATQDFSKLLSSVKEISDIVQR

Turning to `COc1cc2c(Oc3ccc(-c4nc5ccccc5s4)cc3)ncnc2cc1OCCCN1CCCC1`, the residual activity in assay [1] worked out at 11%; in assay [2], 54%; in assay [3], 98%; in assay [4] it was 68%; in [5] it was 46%; in assay [6], 188%. For the same compound, the residual activity in assay [7] is 80%; in assay [8] it was 236%; in assay [9], 97%; in [10], 100%; in assay [11] it was 87%; in [12], 78%. Moreover, the residual activity came to 94% in assay [13]; 97% in assay [14]; 59% in [15]; 6% in assay [16]; 113% in [17]; 102% in [18]. In addition, the residual activity in assay [19] stood at 54%; in [20], 90%; in assay [21], 98%; in [22], 90%.
On to `COc1cc2c(Oc3ccc(-c4nc5ccccc5s4)cc3F)ncnc2cc1OCCCN1CCN(C)CC1`, for which the residual activity in [1] was 21%; in assay [2], 38%; in assay [3], 89%; in assay [4], 65%; in assay [5], 24%; in assay [6] it was 264%. The residual activity in assay [7] came out at 88%; in assay [8], 162%; in [9] it was 109%; in assay [10], 107%; in [11], 105%; in assay [12], 96%. For the same compound, the residual activity in assay [13] was 47%; in [14], 100%; in [15] it was 52%; in assay [16] it was 27%; in [17], 97%; in assay [18], 117%. The residual activity in assay [19] was 41%; in assay [20], 96%; in assay [21] it was 46%; in assay [22], 104%.
Consider `COc1cc2c(Oc3ccc(-c4nc5ccccc5s4)cc3)ncnc2cc1OCCCN1CCN(C)CC1`, for which the residual activity was 10% in [1]; 47% in [2]; 88% in assay [3]; 52% in assay [4]; 22% in assay [5]; 229% in assay [6]. The residual activity in assay [7] was determined as 93%; in [8], 302%; in assay [9], 111%; in assay [10] it was 96%; in [11], 92%; in assay [12], 85%. Further, the residual activity in assay [13] was 112%; in assay [14] it was 94%; in assay [15], 53%; in assay [16], 12%; in assay [17], 103%; in assay [18], 117%. Moreover, the residual activity is 56% in assay [19], 96% in [20], 100% in assay [21] and 97% in assay [22].
